Source: patent US5547960A (Mayo Foundation for Medical Education and Research, priority 1994, dated 1996)
Where two headings read alike, the source gives them in different places.

Legend:
AChE [1] = conditions: relative to (±)-huperzine A; U.S. Pat. No. 4,929,731; cited from earlier work
myasthenia gravis = conditions: 128 patients suffering from myasthenia gravis; Y. S. Cheng, 1986; cited from earlier work
squirrel monkeys = conditions: G. P. Vincent et al., 1987; cited from earlier work
mice = conditions: G. P. Vincent et al., 1987; cited from earlier work
FBS AChE = molecular target: T1, FBS AChE (Bos taurus, UniProt P23795); test: Inhibition of AChE (dissociation constant Ki, procedure of Y. Ashani et al.); assay type: biochemical
T1 construct: FBS AChE; from tissue; host or cells: fetal bovine serum (FBS read as this abbreviation)
T1 sequence (P23795 31-613): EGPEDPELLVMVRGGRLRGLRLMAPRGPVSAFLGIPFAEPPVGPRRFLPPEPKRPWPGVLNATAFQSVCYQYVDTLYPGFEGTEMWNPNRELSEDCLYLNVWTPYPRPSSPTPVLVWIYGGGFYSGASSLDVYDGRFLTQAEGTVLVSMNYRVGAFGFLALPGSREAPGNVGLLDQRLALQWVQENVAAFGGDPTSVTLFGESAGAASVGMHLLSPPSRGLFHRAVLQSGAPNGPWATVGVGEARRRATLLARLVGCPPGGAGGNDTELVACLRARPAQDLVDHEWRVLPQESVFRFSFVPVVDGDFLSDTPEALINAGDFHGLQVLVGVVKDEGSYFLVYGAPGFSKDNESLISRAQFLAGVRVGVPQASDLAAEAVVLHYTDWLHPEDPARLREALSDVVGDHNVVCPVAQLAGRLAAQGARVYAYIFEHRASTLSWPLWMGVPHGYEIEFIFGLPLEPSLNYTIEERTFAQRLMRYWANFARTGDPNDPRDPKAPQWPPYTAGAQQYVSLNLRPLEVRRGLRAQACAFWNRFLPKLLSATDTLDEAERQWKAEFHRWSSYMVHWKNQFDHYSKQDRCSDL
From the text: *Dissociation constant (Ki) for inhibition of AChE determined

[2] = system: acetylcholinesterase (ACHE); conditions: cited from earlier work
Alzheimer's disease = conditions: K. L. Davis, NIA meeting, Jan. 8-10, 1990; cited from earlier work
AChE [3] = conditions: 0.65 mg/kg i.m., cited from earlier work
[4] = procedure of Y. Ashani et al., Molecular Pharmacol., 45, 555 (1994), read-out: FBS AChE Ki, dissociation constant for inhibition of AChE

CC=C1C2C=C(C)CC1(CN)c1ccc(=O)[nH]c1C2 (stereo not shown)
times less potent than (±)-huperzine A as an inhibitor of AChE (AChE [1]): about 166 times

CC=C1C2C=C(C)CC1(N)c1ccc(=O)[nH]c1C2 (single isomer, unassigned) [huperzine A]
cases in which clinical manifestations of myasthenia gravis are controlled (myasthenia gravis): 99% | cognition enhancement in squirrel monkeys (squirrel monkeys): effective cognition enhancer | cognition enhancement in mice (mice): effective cognition enhancer

C=CCC1c2[nH]c(=O)ccc2C2(N)CC(C)=CC1/C2=C\C (stereo not shown) [Compound 8a, (11E)-10-Allyl-5-amino-11-ethylidene-5,6,9,10-tetrahydro-7-methyl-5,9-methanocycloocta[b]pyridin-5(1H)-one]
Ki (FBS AChE; [4]): 275 µM

C/C=C1\C2C=C(C)CC1(N)c1ccc(=O)[nH]c1C2C (stereo not shown) [Compound 8b, (11E)-5-Amino-11-ethylidene-5,6,9,10-tetrahydro-7,10-dimethyl-5,9-methanocycloocta[b]pyridin-2(1H)-one]
Ki (FBS AChE; [4]): 0.008 ± 0.002 µM

C/C=C1\C2C=C(C)CC1(N)c1ccc(=O)[nH]c1C2CC (stereo not shown) [Compound 8c, (11E)-5-Amino-10-ethyl-11-ethylidene-5,6,9,10-tetrahydro-7-methyl-5,9-methanocycloocta[b]pyridin-2(1H)-one]
Ki (FBS AChE): 2.04 µM

C/C=C1\C2C=C(C)CC1(N)c1ccc(=O)[nH]c1C2CCC (stereo not shown) [Compound 8d, (11E)-5-Amino-11-ethylidene-5,6,9,10-tetrahydro-7-methyl-10-propyl-5,9-methanocycloocta[b]pyridin-2(1H)-one]
Ki (FBS AChE; [4]): 207 µM

C/C=C1\C2C=C(C)CC1(N)c1ccc(=O)[nH]c1C2CCCC (stereo not shown) [Compound 8e, (11E)-5-Amino-10-butyl-11-ethylidene-5,6,9,10-tetrahydro-7-methyl-5,9-methanocycloocta[b]pyridin-2(1H)-one]
Ki (FBS AChE; [4]): 192 µM

CC1=CC2Cc3[nH]c(=O)ccc3C3(C1)NCCCC23 (stereo not shown) [huperzine B]
usefulness as ACHE inhibitors relative to THA and physostigmine [2]: appear superior to THA and physostigmine

CNC(=O)Oc1ccc2c(c1)[C@]1(C)CCN(C)[C@@H]1N2C [physostigmine]
cognitive improvement (Alzheimer's disease): modest cognitive improvement | maximal duration of AChE inhibitory action (AChE [3]; X. C. Tang et al., 1989): ≤ 60 min | side effects (AChE [3]): considerable side effects
